Reference: ChEMBL document CHEMBL5233204, “Expanding the repertoire of methanocarba nucleosides from purinergic signaling to diverse targets” (RSC Med Chem, 2021)
Each block holds one molecule with its values, some of them ahead of it.

Tests used:
Human alphaherpesvirus 1 = test: Antiviral activity against HSV-1 by plaque reduction neutralization test; format: functional, organism-based
Human alphaherpesvirus 2 = test: Antiviral activity against HSV-2 by plaque reduction neutralization test; format: functional, organism-based
P-gp (ABCB1) [1] = target: T1, P-gp (ABCB1) (Homo sapiens, UniProt P08183); test: Activation of P-gp (unknown origin) ATPase activity at 10 uM relative to control; settings: read-out: Activity
T1 sequence (P08183 whole entry): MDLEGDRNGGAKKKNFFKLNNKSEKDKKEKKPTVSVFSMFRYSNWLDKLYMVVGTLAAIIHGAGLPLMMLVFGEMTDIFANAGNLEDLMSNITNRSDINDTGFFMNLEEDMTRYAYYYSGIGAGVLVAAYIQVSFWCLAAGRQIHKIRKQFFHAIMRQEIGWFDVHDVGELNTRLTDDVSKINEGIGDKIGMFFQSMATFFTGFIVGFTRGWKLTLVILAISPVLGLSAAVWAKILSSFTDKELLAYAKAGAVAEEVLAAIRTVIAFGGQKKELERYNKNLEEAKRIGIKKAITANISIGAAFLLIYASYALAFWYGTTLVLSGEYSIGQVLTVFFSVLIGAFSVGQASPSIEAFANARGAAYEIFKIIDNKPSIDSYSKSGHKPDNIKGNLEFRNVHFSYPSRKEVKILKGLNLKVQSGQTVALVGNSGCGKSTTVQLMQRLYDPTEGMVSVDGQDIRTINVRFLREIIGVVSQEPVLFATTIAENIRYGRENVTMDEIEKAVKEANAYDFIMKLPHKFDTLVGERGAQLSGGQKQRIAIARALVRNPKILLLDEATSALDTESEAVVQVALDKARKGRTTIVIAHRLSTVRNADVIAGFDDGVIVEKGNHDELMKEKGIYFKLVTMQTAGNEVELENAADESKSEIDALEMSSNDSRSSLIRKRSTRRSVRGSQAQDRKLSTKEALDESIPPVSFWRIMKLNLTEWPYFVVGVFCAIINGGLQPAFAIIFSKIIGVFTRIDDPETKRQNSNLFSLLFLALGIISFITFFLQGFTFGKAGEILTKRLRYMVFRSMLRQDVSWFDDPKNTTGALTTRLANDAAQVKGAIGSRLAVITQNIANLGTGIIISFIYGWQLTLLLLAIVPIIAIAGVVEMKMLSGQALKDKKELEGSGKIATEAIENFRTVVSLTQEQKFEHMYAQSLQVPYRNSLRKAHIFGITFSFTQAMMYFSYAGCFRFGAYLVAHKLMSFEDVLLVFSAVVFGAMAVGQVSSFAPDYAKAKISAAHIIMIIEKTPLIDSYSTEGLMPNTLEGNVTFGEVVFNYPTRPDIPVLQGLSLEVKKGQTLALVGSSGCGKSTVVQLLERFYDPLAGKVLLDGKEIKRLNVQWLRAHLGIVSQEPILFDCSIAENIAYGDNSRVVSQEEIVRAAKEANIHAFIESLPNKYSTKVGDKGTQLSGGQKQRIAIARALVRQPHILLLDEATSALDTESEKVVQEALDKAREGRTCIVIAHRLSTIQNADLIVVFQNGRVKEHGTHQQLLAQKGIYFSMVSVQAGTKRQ

P-gp (ABCB1) [2] = target: T1, P-gp (ABCB1); test: Inhibition of P-gp (unknown origin) ATPase activity at 10 uM relative to control

IC50 (Human alphaherpesvirus 1): 20 nM
IC50 (Human alphaherpesvirus 2): 250 nM
SMILES: Cc1cn([C@H]2C[C@H](O)[C@]3(CO)C[C@H]23)c(=O)[nH]c1=O [(NORTH)-METHANOCARBATHYMIDINE]

activity at 10 µM (P-gp (ABCB1) [1]): 31%
SMILES: CNC(=O)[C@]12C[C@@H]1[C@@H](n1cnc3c(NCc4cccc(Cl)c4)nc(C#Cc4ccccc4)nc31)[C@H](O)[C@@H]2O

inhibition at 10 µM (P-gp (ABCB1) [2]): 53%
SMILES: CNC(=O)[C@]12C[C@@H]1[C@@H](n1cnc3c(N[C@@H]4C[C@H]4c4ccc(F)c(F)c4)nc(C#Cc4ccccc4)nc31)[C@H](O)[C@@H]2O
